According to ChEMBL document CHEMBL1275409, “Antimicrobial-resistant pathogens in intensive care units in Canada: results of the Canadian National Intensive Care Unit (CAN-ICU) study, 2005-2006” (2008):

Tests used:
Format in all cases: functional
Staphylococcus aureus [1] = test: Antimicrobial activity against methicillin-resistant Staphylococcus aureus isolated from ICU patient respiratory tract assessed as resistant isolates by broth microdilution method
Staphylococcus aureus [2] = test: Antimicrobial activity against methicillin-resistant Staphylococcus aureus isolated from ICU patient wound assessed as resistant isolates by broth microdilution method
Staphylococcus aureus [3] = test: Antimicrobial activity against methicillin-resistant Staphylococcus aureus isolated from ICU patient urine assessed as resistant isolates by broth microdilution method
Staphylococcus aureus [4] = test: Antimicrobial activity against methicillin-resistant Staphylococcus aureus isolated from ICU patient blood assessed as resistant isolates by broth microdilution method
Staphylococcus aureus [5] = test: Antimicrobial activity against methicillin-resistant Staphylococcus aureus assessed as resistant isolates by broth microdilution method
Staphylococcus aureus [6] = test: Antimicrobial activity against methicillin-susceptible Staphylococcus aureus isolated from ICU patient respiratory tract assessed as resistant isolates by broth microdilution method
Staphylococcus aureus [7] = test: Antimicrobial activity against methicillin-susceptible Staphylococcus aureus isolated from ICU patient wound assessed as resistant isolates by broth microdilution method
Staphylococcus aureus [8] = test: Antimicrobial activity against methicillin-susceptible Staphylococcus aureus isolated from ICU patient urine assessed as resistant isolates by broth microdilution method
Staphylococcus aureus [9] = test: Antimicrobial activity against methicillin-susceptible Staphylococcus aureus isolated from ICU patient blood assessed as resistant isolates by broth microdilution method
Staphylococcus aureus [10] = test: Antimicrobial activity against methicillin-susceptible Staphylococcus aureus assessed as resistant isolates by broth microdilution method
Haemophilus influenzae [11] = test: Antimicrobial activity against Haemophilus influenzae assessed as resistant isolates by broth microdilution method
Haemophilus influenzae [12] = test: Antimicrobial activity against Haemophilus influenzae isolated from ICU patient blood assessed as resistant isolates by broth microdilution method
Haemophilus influenzae [13] = test: Antimicrobial activity against Haemophilus influenzae isolated from ICU patient wound assessed as resistant isolates by broth microdilution method
Haemophilus influenzae [14] = test: Antimicrobial activity against Haemophilus influenzae isolated from ICU patient respiratory tract assessed as resistant isolates by broth microdilution method
Pseudomonas aeruginosa [15] = test: Antimicrobial activity against carbapenem-resistant Pseudomonas aeruginosa isolated from ICU patient respiratory tract assessed as resistant isolates by broth microdilution method
Pseudomonas aeruginosa [16] = test: Antimicrobial activity against carbapenem-resistant Pseudomonas aeruginosa isolated from ICU patient wound assessed as resistant isolates by broth microdilution method
Pseudomonas aeruginosa [17] = test: Antimicrobial activity against carbapenem-resistant Pseudomonas aeruginosa isolated from ICU patient urine assessed as resistant isolates by broth microdilution method
Pseudomonas aeruginosa [18] = test: Antimicrobial activity against carbapenem-resistant Pseudomonas aeruginosa isolated from ICU patient blood assessed as resistant isolates by broth microdilution method
Pseudomonas aeruginosa [19] = test: Antimicrobial activity against carbapenem-resistant Pseudomonas aeruginosa assessed as resistant isolates by broth microdilution method
Klebsiella pneumoniae [20] = test: Antimicrobial activity against ESBL producing Klebsiella pneumoniae isolated from ICU patient respiratory tract assessed as resistant isolates by broth microdilution method
Klebsiella pneumoniae [21] = test: Antimicrobial activity against ESBL producing Klebsiella pneumoniae isolated from ICU patient wound assessed as resistant isolates by broth microdilution method
Klebsiella pneumoniae [22] = test: Antimicrobial activity against ESBL producing Klebsiella pneumoniae isolated from ICU patient urine assessed as resistant isolates by broth microdilution method
Klebsiella pneumoniae [23] = test: Antimicrobial activity against ESBL producing Klebsiella pneumoniae isolated from ICU patient blood assessed as resistant isolates by broth microdilution method
Klebsiella pneumoniae [24] = test: Antimicrobial activity against ESBL producing Klebsiella pneumoniae assessed as resistant isolates by broth microdilution method
Escherichia coli [25] = test: Antimicrobial activity against CTX-M ESBL producing Escherichia coli isolated from ICU patient respiratory tract assessed as resistant isolates by broth microdilution method
Escherichia coli [26] = test: Antimicrobial activity against CTX-M ESBL producing Escherichia coli isolated from ICU patient urine assessed as resistant isolates by broth microdilution method
Escherichia coli [27] = test: Antimicrobial activity against CTX-M ESBL producing Escherichia coli isolated from ICU patient blood assessed as resistant isolates by broth microdilution method
Escherichia coli [28] = test: Antimicrobial activity against CTX-M ESBL producing Escherichia coli assessed as resistant isolates by broth microdilution method
Streptococcus pneumoniae [29] = test: Antimicrobial activity against penicillin-resistant Streptococcus pneumoniae isolated from ICU patient respiratory tract assessed as resistant isolates by broth microdilution method
Streptococcus pneumoniae [30] = test: Antimicrobial activity against penicillin-resistant Streptococcus pneumoniae isolated from ICU patient wound assessed as resistant isolates by broth microdilution method
Streptococcus pneumoniae [31] = test: Antimicrobial activity against penicillin-resistant Streptococcus pneumoniae isolated from ICU patient blood assessed as resistant isolates by broth microdilution method
Streptococcus pneumoniae [32] = test: Antimicrobial activity against penicillin-resistant Streptococcus pneumoniae assessed as resistant isolates by broth microdilution method
[33] = test system: Staphylococcus epidermidis; test: Antimicrobial activity against methicillin-resistant Staphylococcus epidermidis isolated from ICU patient wound assessed as resistant isolates by broth microdilution method
[34] = test system: Staphylococcus epidermidis; test: Antimicrobial activity against methicillin-resistant Staphylococcus epidermidis isolated from ICU patient urine assessed as resistant isolates by broth microdilution method
[35] = test system: Staphylococcus epidermidis; test: Antimicrobial activity against methicillin-resistant Staphylococcus epidermidis isolated from ICU patient blood assessed as resistant isolates by broth microdilution method
[36] = test system: Staphylococcus epidermidis; test: Antimicrobial activity against methicillin-resistant Staphylococcus epidermidis assessed as resistant isolates by broth microdilution method
[37] = test system: Staphylococcus epidermidis; test: Antimicrobial activity against methicillin-susceptible Staphylococcus epidermidis isolated from ICU patient respiratory tract assessed as resistant isolates by broth microdilution method
[38] = test system: Staphylococcus epidermidis; test: Antimicrobial activity against methicillin-susceptible Staphylococcus epidermidis isolated from ICU patient wound assessed as resistant isolates by broth microdilution method
[39] = test system: Staphylococcus epidermidis; test: Antimicrobial activity against methicillin-susceptible Staphylococcus epidermidis isolated from ICU patient urine assessed as resistant isolates by broth microdilution method
[40] = test system: Staphylococcus epidermidis; test: Antimicrobial activity against methicillin-susceptible Staphylococcus epidermidis isolated from ICU patient blood assessed as resistant isolates by broth microdilution method
[41] = test system: Staphylococcus epidermidis; test: Antimicrobial activity against methicillin-susceptible Staphylococcus epidermidis assessed as resistant isolates by broth microdilution method
Enterobacter cloacae [42] = test: Antimicrobial activity against carbapenem-resistant Enterobacter cloacae isolated from ICU patient respiratory tract assessed as resistant isolates by broth microdilution method
Enterobacter cloacae [43] = test: Antimicrobial activity against carbapenem-resistant Enterobacter cloacae isolated from ICU patient wound assessed as resistant isolates by broth microdilution method
Enterobacter cloacae [44] = test: Antimicrobial activity against carbapenem-resistant Enterobacter cloacae isolated from ICU patient urine assessed as resistant isolates by broth microdilution method
Enterobacter cloacae [45] = test: Antimicrobial activity against carbapenem-resistant Enterobacter cloacae isolated from ICU patient blood assessed as resistant isolates by broth microdilution method
Enterobacter cloacae [46] = test: Antimicrobial activity against carbapenem-resistant Enterobacter cloacae assessed as resistant isolates by broth microdilution method
Escherichia coli [47] = test: Antimicrobial activity against CTX-M ESBL producing Escherichia coli isolated from ICU patient wound assessed as resistant isolates by broth microdilution method

`CO/N=C(\C(=O)N[C@@H]1C(=O)N2C(C(=O)[O-])=C(C[N+]3(C)CCCC3)CS[C@H]12)c1csc(N)n1` showed an Activity (Staphylococcus aureus [1]) of 100%, an Activity (Staphylococcus aureus [2]) of 100% and an Activity (Staphylococcus aureus [3]) of 100%. It also gave an Activity (Staphylococcus aureus [4]) of 100%, an Activity (Staphylococcus aureus [5]) of 100% and an Activity (Staphylococcus aureus [6]) of 0%. The Activity (Staphylococcus aureus [7]) was 0%, the Activity (Staphylococcus aureus [8]) was 0% and the Activity (Staphylococcus aureus [9]) was 0%. It also gave an Activity (Staphylococcus aureus [10]) of 0%, an Activity (Haemophilus influenzae [11]) of 0% and an Activity (Haemophilus influenzae [12]) of 0%. The Activity (Haemophilus influenzae [13]) was 0%, the Activity (Haemophilus influenzae [14]) was 0% and the Activity (Pseudomonas aeruginosa [15]) was 0%. The Activity (Pseudomonas aeruginosa [16]) was 0%, the Activity (Pseudomonas aeruginosa [17]) was 0% and the Activity (Pseudomonas aeruginosa [18]) was 0%. It also gave an Activity (Pseudomonas aeruginosa [19]) of 0%, an Activity (Klebsiella pneumoniae [20]) of 7.6% and an Activity (Klebsiella pneumoniae [21]) of 18.9%. It also gave an Activity (Klebsiella pneumoniae [22]) of 17.8%, an Activity (Klebsiella pneumoniae [23]) of 9.1% and an Activity (Klebsiella pneumoniae [24]) of 10.2%. It also gave an Activity (Escherichia coli [25]) of 0.8%, an Activity (Escherichia coli [26]) of 0.4% and an Activity (Escherichia coli [27]) of 1.4%. For the same molecule, the Activity (Escherichia coli [28]) was 0.7%, the Activity (Streptococcus pneumoniae [29]) was 0% and the Activity (Streptococcus pneumoniae [30]) was 0%. For the same molecule, the Activity (Streptococcus pneumoniae [31]) was 0%, the Activity (Streptococcus pneumoniae [32]) was 0% and the Activity [33] was 100%. For the same molecule, the Activity [34] was 100%, the Activity [35] was 100% and the Activity [36] was 100%. For the same molecule, the Activity [37] was 0%, the Activity [38] was 33.3% and the Activity [39] was 20%. For the same molecule, the Activity [40] was 8.9% and the Activity [41] was 16.3%.
In the case of `CO/N=C(\C(=O)N[C@@H]1C(=O)N2C(C(=O)O)=C(CSc3nc(=O)c(O)nn3C)CS[C@H]12)c1csc(N)n1` [CEFTRIAXONE], the Activity (Staphylococcus aureus [1]) was 100%, the Activity (Staphylococcus aureus [2]) was 100% and the Activity (Staphylococcus aureus [3]) was 100%. For the same molecule, the Activity (Staphylococcus aureus [4]) was 100%, the Activity (Staphylococcus aureus [5]) was 100% and the Activity (Staphylococcus aureus [6]) was 0%. It also gave an Activity (Staphylococcus aureus [7]) of 0%, an Activity (Staphylococcus aureus [8]) of 0% and an Activity (Staphylococcus aureus [9]) of 0%. For the same molecule, the Activity (Staphylococcus aureus [10]) was 0%, the Activity (Enterobacter cloacae [42]) was 10.2% and the Activity (Haemophilus influenzae [11]) was 0.3%. It also gave an Activity (Haemophilus influenzae [12]) of 0%, an Activity (Haemophilus influenzae [13]) of 0% and an Activity (Haemophilus influenzae [14]) of 0.3%. For the same molecule, the Activity (Enterobacter cloacae [43]) was 5.9%, the Activity (Enterobacter cloacae [44]) was 25% and the Activity (Enterobacter cloacae [45]) was 29.2%. For the same molecule, the Activity (Enterobacter cloacae [46]) was 13.9%, the Activity (Pseudomonas aeruginosa [15]) was 27% and the Activity (Pseudomonas aeruginosa [16]) was 30.2%. It also gave an Activity (Pseudomonas aeruginosa [17]) of 33.3%, an Activity (Pseudomonas aeruginosa [18]) of 51.5% and an Activity (Pseudomonas aeruginosa [19]) of 30%. The Activity (Klebsiella pneumoniae [20]) was 0%, the Activity (Klebsiella pneumoniae [21]) was 3.9% and the Activity (Klebsiella pneumoniae [22]) was 0%. The Activity (Klebsiella pneumoniae [23]) was 0%, the Activity (Klebsiella pneumoniae [24]) was 0.4% and the Activity (Escherichia coli [25]) was 2.5%. The Activity (Escherichia coli [47]) was 1.7%, the Activity (Escherichia coli [26]) was 4.2% and the Activity (Escherichia coli [27]) was 5.5%. For the same molecule, the Activity (Escherichia coli [28]) was 3.7%, the Activity (Streptococcus pneumoniae [29]) was 0% and the Activity (Streptococcus pneumoniae [30]) was 0%. It also gave an Activity (Streptococcus pneumoniae [31]) of 0%, an Activity (Streptococcus pneumoniae [32]) of 0% and an Activity [33] of 100%. For the same molecule, the Activity [34] was 100%, the Activity [35] was 100% and the Activity [36] was 100%. It also gave an Activity [37] of 0%, an Activity [38] of 25% and an Activity [39] of 0%. It also gave an Activity [40] of 1.8% and an Activity [41] of 8.1%.
